Measurements reported in ChEMBL document CHEMBL1130171, “Structure--activity studies for alpha-amino-3-hydroxy-5-methyl-4-isoxazolepropanoic acid receptors: acidic hydroxyphenylalanines” (J Med Chem, 1997).

Legend:
[1] = Protolysis constant at an ionic strength of 0.1 M.; format: ADME
[2] = target: Glutamate receptor ionotropic, AMPA (Rattus norvegicus, UniProt P19490+P19491+P19492+P19493); test: Inhibition of specific binding of [3H]AMPA to Ionotropic glutamate receptor AMPA in rat brain membranes; format: cell membranes
[3] = species on record: Rattus norvegicus; test: In vitro stimulation of norepinephrine release from hippocampal nerve endings.; format: functional; conditions: Hippocampus
[4] = species on record: Rattus norvegicus; test: Inhibition of stimulation of NE release by 100 uM of AMPA; format: functional

Row | Structure (SMILES) | pKa [1] | also measured
1 | Cc1cc([N+](=O)[O-])ccc1O | 7.2 | –
2 | NC(Cc1ccccc1O)C(=O)O (centres undefined) | 8.67 | –
3 | NC(Cc1ccc([N+](=O)[O-])c(O)c1[N+](=O)[O-])C(=O)O (centres undefined) | 3.2 | IC50 [2]: 4.9 µM; EC50 [3]: 74 µM
4 | NC(Cc1ccc([N+](=O)[O-])c(O)c1)C(=O)O (centres undefined) | 6.6 | –
5 | NC(Cc1cccc([N+](=O)[O-])c1O)C(=O)O (centres undefined) | 6.6 | –
6 | Cc1cccc([N+](=O)[O-])c1O | 7.7 | –
7 | NC(Cc1cc([N+](=O)[O-])ccc1O)C(=O)O (centres undefined) | 6.4 | –
8 | N[C@@H](Cc1cc([N+](=O)[O-])c(O)c([N+](=O)[O-])c1)C(=O)O | 3.2 | –
9 | NC(Cc1cc(O)c([N+](=O)[O-])cc1[N+](=O)[O-])C(=O)O (centres undefined) | 3.8 | –
10 | NC(Cc1ccc(O)c([N+](=O)[O-])c1)C(=O)O (centres undefined) | 6.8 | –
11 | NC(Cc1c([N+](=O)[O-])ccc(O)c1[N+](=O)[O-])C(=O)O (centres undefined) | 3.6 | –
12 | NC(Cc1cc(O)ccc1[N+](=O)[O-])C(=O)O (centres undefined) | 6.8 | –
13 | NC(Cn1cc([N+](=O)[O-])c(=O)[nH]c1=O)C(=O)O (centres undefined) | 6.4 | EC50 [3]: 15 µM
14 | NC(Cc1cc([N+](=O)[O-])cc([N+](=O)[O-])c1O)C(=O)O (centres undefined) | 6.4 | IC50 [2]: 25 µM; IC50 [4]: 730 µM
15 | O=C(O)C(O)Cc1cc([N+](=O)[O-])cc([N+](=O)[O-])c1O (centres undefined) | 4.2 | –
16 | NC(Cn1ccc(=O)[nH]c1=O)C(=O)O (racemic) | 9.3 | –
17 | Cc1onc(O)c1C[C@H](N)C(=O)O [(S)-AMPA] | – | EC50 [3]: 6.7 µM
18 | O=[N+]([O-])c1cc2nc(O)c(O)nc2cc1[N+](=O)[O-] [DNQX] | – | IC50 [4]: 41 µM
19 | C=C(C)[C@H]1CN[C@H](C(=O)O)[C@H]1CC(=O)O [KAINIC ACID] | – | EC50 [3]: 3.7 µM
